Data from ChEMBL document CHEMBL1157210, “Neurosteroid analogues. 12. Potent enhancement of GABA-mediated chloride currents at GABAA receptors by ent-androgens” (Eur J Med Chem, 2008).

Assays:
[1] = Displacement of […] from GABAA receptor in rat brain; type: tissue-based
[2] = test system: Xenopus laevis; assay: Anesthetic effect in Xenopus laevis assessed as loss of righting response; type: functional, organism-based
[3] = test system: Xenopus laevis; assay: Anesthetic effect in Xenopus laevis assessed as loss of swimming response; type: functional, organism-based
[4] = species: Rattus norvegicus; assay: Activity at rat GABAA alpha-1-beta-2-gamma-2L receptor expressed in Xenopus laevis assessed as ratio of current in treated to non-treated oocyte at 0.1 uM by electrophysiology
[5] = species: Rattus norvegicus; assay: Activity at rat GABAA alpha-1-beta-2-gamma-2L receptor expressed in Xenopus laevis expressed in assessed as ratio of current in treated to non-treated oocyte at 1 uM by electrophysiology
[6] = species: Rattus norvegicus; assay: Activity at rat GABAA alpha-1-beta-2-gamma-2L receptor expressed in Xenopus laevis expressed in assessed as ratio of current in treated to non-treated oocyte at 10 uM by electrophysiology
[7] = species: Rattus norvegicus; assay: Activity at rat GABAA alpha-1-beta-2-gamma-2L receptor expressed in Xenopus laevis assessed as ratio of current in drug-treated to GABA-treated oocyte at 10 uM by electrophysiology

| SMILES | IC50 [1] [nM] | EC50 [2] [nM] | EC50 [3] [nM] | Ratio [4] | Ratio [5] | Ratio [6] | Ratio [7] |
| --- | --- | --- | --- | --- | --- | --- | --- |
| CC(=O)[C@H]1CC[C@H]2[C@@H]3CC[C@@H]4C[C@H](O)CC[C@]4(C)[C@H]3CC[C@]12C [ELTANOLONE] | 71 | 60 | 300 | 1.2 | 2.82 | 9.77 | 0.06 |
| C[C@@]12CC[C@H](O)C[C@@H]1CC[C@@H]1[C@@H]2CC[C@]2(C)[C@H]1CC[C@]21CO1 | 390 | 1730 | 2760 | 1.86 | 10.5 | 20.8 | 0.12 |
| C[C@]12CC[C@@H](O)C[C@@H]1CC[C@@H]1[C@@H]2CC[C@@]2(C)[C@H]1CC[C@@]21CO1 | 110 | 1350 | 2760 | 3.11 | 21.9 | 33.7 | 0.22 |
| C[C@@]12CC[C@H](O)C[C@@H]1CC[C@@H]1[C@@H]2CC[C@@]2(C)C(=O)CC[C@@H]12 | 380 | 1970 | 8900 | 1.4 | 2.34 | 14.1 | 0.09 |
| CC(=O)[C@H]1CC[C@H]2[C@@H]3CC[C@H]4C[C@H](O)CC[C@]4(C)[C@H]3CC[C@]12C [BREXANOLONE] | 74 | 420 | 5500 | 1.26 | 3.89 | 9.65 | 0.37 |
| C[C@]12CC[C@@H](O)C[C@H]1CC[C@@H]1[C@@H]2CC[C@@]2(C)[C@H]1CC[C@@]21CO1 | 220 | 990 | 1730 | 1.28 | 5.17 | 25.4 | 0.03 |
| CC(=O)[C@@H]1CC[C@H]2[C@@H]3CC[C@@H]4C[C@@H](O)CC[C@@]4(C)[C@H]3CC[C@@]12C | 1910 | 970 | > 5000 | 0.95 | 0.92 | 1.17 | 0.02 |
| CC(=O)[C@@H]1CC[C@H]2[C@@H]3CC[C@H]4C[C@@H](O)CC[C@@]4(C)[C@H]3CC[C@@]12C | 280 | 70 | 890 | 1.28 | 2.82 | 7.92 | 0.06 |
| C[C@@]12CC[C@H](O)C[C@H]1CC[C@@H]1[C@@H]2CC[C@@]2(C)C(=O)CC[C@@H]12 | 310 | 1420 | 5480 | 1.27 | 3.66 | 18.9 | 0.03 |
| C[C@@]12CC[C@H](O)C[C@H]1CC[C@@H]1[C@@H]2CC[C@]2(C)[C@H]1CC[C@]21CO1 | 470 | 1080 | 2710 | 2.62 | 15.9 | 26.3 | 0.1 |
| C[C@]12CC[C@@H](O)C[C@H]1CC[C@@H]1[C@@H]2CC[C@]2(C)C(=O)CC[C@@H]12 [ETIOCHOLANOLONE] | 4150 |  |  | 0.89 | 0.87 | 1.39 | 0 |
| C[C@]12CC[C@@H](O)C[C@@H]1CC[C@@H]1[C@@H]2CC[C@]2(C)C(=O)CC[C@@H]12 [ANDROSTERONE] | 410 | 3380 |  | 0.97 | 1.41 | 5.44 | 0.02 |
